Test results taken from patent publication US7910621B2, “Small molecule antagonists of XIAP family proteins” (The Regents of the University of Michigan, priority 2004, dated 2011).

How the values were obtained:
[1] = molecular target: T1, human XIAP-BIR3 domain (residues 241-356) (Homo sapiens, UniProt P98170); assay: 15N-HSQC NMR binding confirmation; conditions: 100 μM protein, 100 μM embelin, 30° C.
T1 construct: The human XIAP-BIR3 domain (residues 241-356) fused to His-tag; His-tag (pET-28b); made in house; host or cells: Escherichia coli BL21(DE3)
Experimental: To conclusively confirm that embelin binds to the XIAP BIR3 domain where Smac and caspase-9 bind, and to rule out any potential false positive, an analysis using nuclear magnetic resonance (NMR) Heteronuclear Single Quantum Coherence Spectroscopy (HSQC) method was performed. The human XIAP-BIR3 domain (residues 241-356) fused to His-tag was expressed in M9 medium containing ^15N ammonium chloride to uniformly label protein with ^15N and was purified. ^15N HSQC NMR spectra were recorded with embelin and without embelin at 30° C. […]
The NMR experiments were performed on a Varian Inova 500 with pulse field gradient (PFG) HSQC, with the water flip back to maximize the signal intensity and to minimize the destruction from the water signal (see, e.g., Grzesiek, S., et al., J. Am. Chem. Soc. 115, 12593-94 (1993); Sheppard, G. S., et al., Abstr. Pap.-Am. Chem. Soc. 213, 81 (1997)) (300 μM XIAP, 50 mM phosphate buffer pH 7.3, 2 mM DTT at 25° C.). ^15N HSQC NMR spectra were recorded with samples containing 100 μM of the ^15N protein in 50 mM Tris (pH 7.2), 50 μM Zn(Cl)2, 1 mM DTT at 30° C. with 100 μM embelin and without it. […]

[2] = test system: LNCap prostate cancer cells; assay: WST-1 cell growth inhibition assay, LNCaP; assay type: cell-based; conditions: Homo sapiens, 120 h, WST-1, five days
Experimental: (§1) FIG. 5 presents inhibition of cell growth by embelin in prostate cancer cells (PC-3 and LnCap) and its selectivity in normal human prostate epithelial cells (PrEC) and normal human fibroblast cell line, WI-38. 5000 cells per well in a 96-well cell culture plate were treated with various concentrations of embelin in triplicate. Five days later, the cell growth was measured by the WST-1 cell growth assay kit […] The cell growth results are expressed as the percent of control and calculated from the percent of absorbance of treated wells versus that of vehicle control.
(§2) Human prostate cancer cell lines (PC-3, LNCap, CL-1, DU-145), and normal human fibroblast cell line WI-38 were obtained from the American Type Culture Collection (ATCC), were grown and maintained in Dulbecco's modified Eagle's medium (DMEM) containing 10% FBS (Invitrogen Corporation). Normal human prostate epithelial cells (PrEC) were obtained from Clonetics (Cambrex Inc., MD) and maintained in the special medium provided by the company. […]
(§3) Cell growth was determined by the MTT-based assay using Cell Proliferation Reagent WST-1 (Roche) according to the manufacturer's instruction. […] Absorbance was measured with a plate reader at […] with correction at […]. The results are expressed as the percent of absorbance of treated wells versus that of vehicle control.

[3] = test system: normal human fibroblast cell line WI-38; assay: WST-1 cell growth inhibition assay, WI-38; assay type: cell-based; conditions: 120 h, WI-38, WST-1, five days
Experimental: as §1, §2, §3

Jurkat-Vec cells = assay: Cell growth assay, Jurkat-Vec; assay type: cell-based; conditions: read-out: IC50 cell growth inhibition
Experimental: FIG. 9 presents inhibition of cell growth by embelin in Jurkat-Vec and Jurkat-XIAP cells. The cell growth results are expressed as the percent of control and calculated from the percent of absorbance of treated wells versus that of vehicle control.
Human prostate cancer cell lines (PC-3, LNCap, CL-1, DU-145), and normal human fibroblast cell line WI-38 were obtained from the American Type Culture Collection (ATCC), were grown and maintained in Dulbecco's modified Eagle's medium (DMEM) containing 10% FBS (Invitrogen Corporation). Normal human prostate epithelial cells (PrEC) were obtained from Clonetics (Cambrex Inc., MD) and maintained in the special medium provided by the company. Jurkat T-cells stably transfected with either empty vector (Jurkat-Vec), or XIAP (Jurkat-XIAP) and were cultured in RPMI 1640 containing 10% fetal calf serum and 1 ug/ml puromycin. Cell cultures were maintained in a humidified incubator at 37° C. and 5% CO2.
as §3

[4] = test system: methylcholanthrene-induced fibrosarcoma; conditions: methylcholanthrene-induced fibrosarcoma in albino rats (Chitra et al. 1994); cited from earlier work

T1 sequence (P98170 241-356): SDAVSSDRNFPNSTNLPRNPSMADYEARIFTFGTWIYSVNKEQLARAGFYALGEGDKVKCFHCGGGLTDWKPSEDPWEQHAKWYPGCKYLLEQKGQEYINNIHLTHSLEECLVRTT

IC50 [2]: 5.7 µM
IC50 (Jurkat-Vec cells): 20 µM
SMILES: CCCCCCCCCCCC1=C(O)C(=O)C=C(O)C1=O [embelin]
binding site on XIAP BIR3 by 15N HSQC NMR [1]: binds to the surface groove in the XIAP BIR3 domain where Smac and caspase-9 bind
IC50 [3]: 19.3 µM
antitumor activity [4]: significant antitumor activity
